Source: US8076346B2 (priority 2000, dated 2011)

How the values were obtained:
Assay type in all cases: in vivo
[1] = Pharmacokinetics of DPB after oral DPB or NaDPB and IV NaDPB in Sprague-Dawley rats; conditions: for AUC(0-t): Sprague-Dawley, 150 mg/kg; for AUC(0-t) / Cmax / Tmax / half-life / bioavailability: rat, in vivo; for bioavailability: read-out: F (absolute bioavailability)
Experimental: (§1) In accordance with the present invention, pharmacokinetic parameters were calculated using standard non-compartmental methods, as implemented in WinNonlin™ 4.0.1. […] The mean, SD and CV (%) were used to calculate the AUC0-t (μg·h/mL), C. (μg/ml) (the maximum observed concentration), Tmax (hours) (the time to reach that peak concentration) and Kel (the elimination rate constant) for each animal and each analyte.
(§2) AUC0-t was calculated using the linear trapezoidal rule, which employs an approximate integration formula. The area of each trapezoid was calculated, and the sum of all the areas of all the trapezoids yielded an estimate of the true area under the curve. (See, Gibaldi et al. Pharmacokinetics. 2nd Ed. Marcel Dekker, Inc., 1982; Yeh et al., A comparison of numerical integrating algorithms by trapezoidal, lagrange, and spline approximations. J. Pharmacokinet Biopharm. 6: 79 (1978), the disclosure of which is herein incorporated by reference.) Cmax and Tmax were then determined for each concentration vs. time profile. Elimination rate constant (Kel) was calculated using regression analyses on the natural log (ln) of plasma concentration values (y) versus time (x).
We examined the delivery of DPB to the vascular compartment by administrating directly DPB and compared it with the sodium salt of DPB. This study compared the pharmacokinetics of DPB after oral administration of DPB (150 mg/kg) and sodium salt of DPB (150 mg/kg) in rats. Fifty-four rats were administered DPB and sodium salt of DPB by a single oral gavage (n=54). Blood samples were obtained (approximately 0.5 mL each) were collected following each treatment from animal via the jugular vein. Blood samplings from groups of 3 rats/sex/time point were collected at various times after dosing, in order to provide the complete time-points of pre-dose, 0, 0.5, 1, 2, 3, 4, 6, 12, 18, 24, 36 and 48 hours after dosing. Each blood sample was collected into a tube containing lithium heparin and the samples were spun in a refrigerated centrifuge. The resultant plasma was stored at −80° C. prior to analysis. DPB was quantified in plasma using HPLC (LLOQ=0.25 μg/mL).
(§3) We calculated AUC0-t for DPB at various times (24, 36 and 48 hours) after oral administrations of DPB and sodium salt of DPB.

[2] = Brain concentration of DPB after oral DPB or NaDPB and IV NaDPB in Sprague-Dawley rats; conditions: rat, in vivo
Experimental: In this study, we measured the brain concentration of DPB. Brains were collected as soon as possible after euthanasia from each rat. They were stored in a freezer at −80° C. prior to determination of DPB brain tissue concentrations. Table 6 summarizes the brain concentrations of DPB after oral administration of DPB and sodium salt of DPB in Sprague-Dawley rats.

[3] = Pharmacokinetics of DPB after oral DPB or NaDPB and IV NaDPB in Beagle dogs; conditions: for AUC(0-t): Beagle, 75 mg/kg
Experimental: as §1, §2
We examined the delivery of DPB to the vascular compartment by administrating directly DPB and compared it with the sodium salt of DPB in dogs. This study compared the pharmacokinetics of DPB after oral administration of a single dose of DPB (75 mg/kg) or sodium salt of DPB (75 mg/kg) in Beagle dogs. Twenty-eight Beagle dogs were administered DPB and sodium salt of DPB by a single oral gavage (n=24). Blood samples were obtained pre-dose and 0.5, 1, 2, 3, 4, 6, 12, 18, 24, 36 and 48 hours after dosing. DPB was quantified in plasma using HPLC (LLOQ=0.25 μg/mL).
as §3

[4] = Sprague-Dawley rats, female, IV infusion 150 mg/kg, analyte DPB in plasma
[5] = Sprague-Dawley rats, female, oral 150 mg/kg, analyte DPB in plasma
[6] = Sprague-Dawley rats, male, IV infusion 150 mg/kg, analyte DPB in plasma
[7] = Sprague-Dawley rats, male, oral 150 mg/kg, analyte DPB in plasma
[8] = dog, in vivo, IV infusion 75 mg/kg, analyte DPB in plasma
[9] = dog, in vivo, oral 75 mg/kg, analyte DPB in plasma
[10] = oral 75 mg/kg, relative to oral DPB free acid

Compound: O=C1NC(=O)C(c2ccccc2)(c2ccccc2)C(=O)N1.[Na] [NaDPB, sodium 5,5-diphenyl barbiturate]
- AUC0-t for DPB, increase versus oral DPB ([1]; Sprague-Dawley rats, female, oral 150 mg/kg, relative to oral DPB free acid): ~2 fold
- AUC(0-t) ([1]; female, iv, Sprague-Dawley rats, female, IV infusion 150 mg/kg, analyte DPB in plasma, read-out: AUC0-t): 4330 µg·h/mL
- AUC(0-t) ([1]; female, iv, female, IV infusion 150 mg/kg, analyte DPB, read-out: AUC0-36): 4760 µg·h/mL
- AUC(0-t) ([1]; female, po, Sprague-Dawley rats, female, oral 150 mg/kg, analyte DPB in plasma, read-out: AUC0-t): 4040 µg·h/mL
- AUC(0-t) ([1]; female, po, female, oral 150 mg/kg, analyte DPB, read-out: AUC0-36): 3130 µg·h/mL
- AUC(0-t) ([1]; female, po, female, oral 150 mg/kg, analyte DPB, read-out: AUC0-48): 4040 µg·h/mL
- AUC(0-t) ([1]; male, iv, Sprague-Dawley rats, male, IV infusion 150 mg/kg, analyte DPB in plasma, read-out: AUC0-t): 4030 µg·h/mL
- AUC(0-t) ([1]; male, iv, male, IV infusion 150 mg/kg, analyte DPB, read-out: AUC0-36): 4610 µg·h/mL
- AUC(0-t) ([1]; male, iv, male, IV infusion 150 mg/kg, analyte DPB, read-out: AUC0-48): 5690 µg·h/mL
- AUC(0-t) ([1]; male, po, Sprague-Dawley rats, male, oral 150 mg/kg, analyte DPB in plasma, read-out: AUC0-t): 3410 µg·h/mL
- AUC(0-t) ([1]; male, po, male, oral 150 mg/kg, analyte DPB, read-out: AUC0-36): 2720 µg·h/mL
- AUC(0-t) ([1]; male, po, male, oral 150 mg/kg, analyte DPB, read-out: AUC0-48): 3410 µg·h/mL
- Cmax [1, 4]: 174 µg/mL
- Tmax [1, 4]: 2 h
- half-life [1, 4]: 26.8 h
- Cmax [1, 5]: 104 µg/mL
- Tmax [1, 5]: 12 h
- half-life [1, 5]: 32.9 h
- bioavailability ([1]; Sprague-Dawley rats, female, oral 150 mg/kg, analyte DPB): 87.7%
- Cmax [1, 6]: 184 µg/mL
- Tmax [1, 6]: 1 h
- half-life [1, 6]: 24.2 h
- Cmax [1, 7]: 86.9 µg/mL
- Tmax [1, 7]: 18 h
- half-life [1, 7]: 17.6 h
- bioavailability ([1]; Sprague-Dawley rats, male, oral 150 mg/kg, analyte DPB): 70.6%
- concentration at 18 h ([2]; female, IV infusion 150 mg/kg): 36100 ng/g
- concentration at 24 h ([2]; female, IV infusion 150 mg/kg): 40700 ng/g
- concentration at 36 h ([2]; female, IV infusion 150 mg/kg): 21900 ng/g
- concentration at 24 h ([2]; female, oral 150 mg/kg): 25800 ng/g
- concentration at 36 h ([2]; female, oral 150 mg/kg): 28400 ng/g
- concentration at 48 h ([2]; female, oral 150 mg/kg): 14900 ng/g
- concentration at 18 h ([2]; male, IV infusion 150 mg/kg): 41200 ng/g
- concentration at 24 h ([2]; male, IV infusion 150 mg/kg): 35600 ng/g
- concentration at 36 h ([2]; male, IV infusion 150 mg/kg): 27500 ng/g
- concentration at 24 h ([2]; male, oral 150 mg/kg): 29900 ng/g
- concentration at 36 h ([2]; male, oral 150 mg/kg): 23600 ng/g
- concentration at 48 h ([2]; male, oral 150 mg/kg): 9460 ng/g
- AUC(0-t) ([3]; dog, in vivo, iv, IV infusion 75 mg/kg, analyte DPB in plasma, read-out: AUC0-t): 1570 µg·h/mL
- AUC(0-t) ([3]; dog, in vivo, iv, IV infusion 75 mg/kg, analyte DPB, read-out: AUC0-24): 1410 µg·h/mL
- AUC(0-t) ([3]; dog, in vivo, iv, IV infusion 75 mg/kg, analyte DPB, read-out: AUC0-36): 1600 µg·h/mL
- AUC(0-t) ([3]; dog, in vivo, iv, IV infusion 75 mg/kg, analyte DPB, read-out: AUC0-48): 1620 µg·h/mL
- AUC(0-t) ([3]; dog, in vivo, po, oral 75 mg/kg, analyte DPB in plasma, read-out: AUC0-t): 883 µg·h/mL
- AUC(0-t) ([3]; dog, in vivo, po, oral 75 mg/kg, analyte DPB, read-out: AUC0-24): 883 µg·h/mL
- AUC(0-t) ([3]; dog, in vivo, po, oral 75 mg/kg, analyte DPB, read-out: AUC0-36): 962 µg·h/mL
- AUC(0-t) ([3]; dog, in vivo, po, oral 75 mg/kg, analyte DPB, read-out: AUC0-48): 962 µg·h/mL
- Cmax [3, 8]: 95.7 µg/mL
- Tmax [3, 8]: 0.5 h
- half-life [3, 8]: 6 h
- bioavailability ([3]; dog, in vivo, oral 75 mg/kg vs IV 75 mg/kg, read-out: absolute bioavailability of DPB): ~58%
- Cmax [3, 9]: 54.2 µg/mL
- Tmax [3, 9]: 7.8 h
- half-life [3, 9]: 5.9 h
- AUC0-t for DPB, increase versus oral DPB [3, 10]: ~4 fold
- Cmax for DPB, increase versus oral DPB [3, 10]: ~3 fold
